This assay concerns Malassezia furfur. The assay is described as follows: ΣFIC assay against Malassezia furfur (checkerboard in-vitro susceptibility testing, alamar blue). The format is cell-based, M. furfur (CBS 1878). The method, then: A brief description of the method is given below.
Methods: ΣFIC Assay Against Malassezia furfur
They are then incubated at 32° C. for 48 hrs with shaking. Then, 1 ml of the first broth culture is transferred into 9 ml of fresh PB and incubated at 32° C. for 48 hrs with shaking. The final culture should contain 2 to 6×10^6 cells/ml. This is achieved by diluting using PB to 5*10^6 cell/ml.
The piperazine compound was serially diluted (2-fold) to prepare in a range of 10-10,000 ppm in growth medium.
Binary combinations of ZPTO and the testing compound were prepared in 96-well plate by mixing 20 μl of zinc pyrithione solution with 20 μl of testing compound. The solution in each well were further mixed with 160 μl of PB and 20 μl of M. furfur. The final cell density in the testing plate is around 5*10^4 cell/ml, and the final concentration of actives in each well of the 96-well plate were shown below.
The plate was incubated at 32° C. for one day. Then 20 μl of alamar blue (0.01%) was added into each well with a further incubation for one day to observe the color change. Red color indicates microbial growth and the non-changing blue color indicates no growth.
The MIC is defined as the absolute lowest concentration of active that provides complete microbial growth inhibition as indicated by the blue color of alamar blue under the tested condition.
The differing behaviours of inhibitory antimicrobials in isolation and mixtures have been widely explored using the concept of the Fractional Concentration (FC) and Fractional Inhibitory Concentration (FIC). The parameter can be defined as follows: […]
The interactions between antimicrobials can be additive, synergistic or antagonistic depending on whether the efficacy of the combination is equivalent to, greater than or less than that obtained for the same total concentration of the individual components when tested alone.
These relationships can be expressed mathematically by summing the fractional MIC values for all the components present in the mixture to give the “fractional inhibition index”. There is no consistent approach in the academic or patent literature in defining precise limiting ΣFIC values that differentiate synergy from additivity or antagonism. In this study, we have adopted a liberal approach defining any binary mixture with ΣFIC<0.9 as showing evidence of synergistic behavior.
ΣFIC=FIC (component 1)+FIC (component 2)
ΣFIC=1 corresponds to additive bactericidal activity
ΣFIC>1 corresponds to antagonistic bactericidal activity
ΣFIC<0.9 corresponds to synergistic bactericidal activity
A general note: The colour change of resazurin is a common sign of viable cells or microbes.

Where [1] appears, read: CBS1878, active alone, M. furfur CBS 1878 in Pityrosporum Broth, 32° C., complete growth inhibition by alamar blue, read-out: Minimum Inhibition Concentration (MIC).
Setting [2] is: CBS1878, read-out: Minimum Inhibition Concentration (MIC).

Counter-ions that a name gives are not always drawn. Like-named read-outs stand apart in the source and are kept apart here. Bounds are passed on as bounds.

Turning to `O=C(c1ccccc1F)N1CCN(C2CCC(c3ccccc3)CC2)CC1` (centres unmarked) [1-(2-fluorobenzoyl)-4-(4-phenylcylcohexyl)piperazine], the MIC under setting [1] was found to be 100 µg/mL.

In the case of `CCc1ccc(CN2CCN(Cc3cccc(Cl)c3)CC2)cc1` [1-(3-chlorobenzyl)-4-(4-ethylbenzyl)piperazine oxalate], the MIC under setting [2] is more than 1000 µg/mL.

With `CCc1ccc(CN2CCN(C3CCC(C)CC3)CC2)cc1` (centres unmarked) [1-(4-ethylbenzyl)-4-(4-methylcyclohexyl)piperazine oxalate], the MIC under setting [2] came to 125 µg/mL.

For the molecule `CC(C)C(=O)N1CCN(c2ccc(F)cc2)CC1` [1-(4-fluorophenyl)-4-isobutyrylpiperazine], under setting [1], the MIC is more than 1000 µg/mL.

Regarding `CC(C)C(=O)N1CCN(c2ccccc2)CC1` [1-isobutyryl-4-phenylpiperazine], the MIC under setting [1] is more than 1000 µg/mL.

The record behind these values is patent US10617621B2, “Antimicrobial composition” (Conopco, Inc., priority 2016, dated 2020).
